Source: patent publication US7939288B2, “Method for differentiating between factor XIII deficiency states and fibrinogen deficiency states by means of thrombelastographic techniques” (CSL Behring GmbH, priority 2005, dated 2011)

Biological target: T1, factor XIII (Homo sapiens, UniProt P00488)
T1 construct: The test batch contained: 200 μl of plasma; from tissue; host or cells: standard human plasma
T1 sequence (P00488 39-732 limits assumed): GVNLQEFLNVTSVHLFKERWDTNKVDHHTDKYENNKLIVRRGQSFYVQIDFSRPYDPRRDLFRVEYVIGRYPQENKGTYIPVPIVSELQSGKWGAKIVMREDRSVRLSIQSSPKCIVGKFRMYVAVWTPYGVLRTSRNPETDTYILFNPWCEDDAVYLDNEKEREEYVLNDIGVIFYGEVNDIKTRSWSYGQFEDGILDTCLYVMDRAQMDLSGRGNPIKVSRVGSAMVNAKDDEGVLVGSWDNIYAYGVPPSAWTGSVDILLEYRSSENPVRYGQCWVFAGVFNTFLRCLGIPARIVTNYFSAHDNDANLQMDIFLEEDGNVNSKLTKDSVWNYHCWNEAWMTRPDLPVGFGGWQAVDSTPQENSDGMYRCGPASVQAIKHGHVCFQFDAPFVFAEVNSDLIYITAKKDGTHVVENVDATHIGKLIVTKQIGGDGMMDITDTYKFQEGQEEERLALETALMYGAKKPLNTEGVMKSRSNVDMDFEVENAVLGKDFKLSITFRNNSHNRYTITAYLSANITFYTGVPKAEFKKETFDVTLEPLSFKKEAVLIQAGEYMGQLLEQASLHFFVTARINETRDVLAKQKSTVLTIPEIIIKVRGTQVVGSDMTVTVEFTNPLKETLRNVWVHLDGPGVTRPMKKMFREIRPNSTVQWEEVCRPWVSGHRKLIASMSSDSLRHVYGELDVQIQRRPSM
Assay: TEG of standard human plasma with low molecular weight factor XIII inhibitors, clotting started by tissue factor reagent (Thromborel S)
Format: biochemical
Experimental: For the quantitative determination of the influence of factor XIII, standard human plasma with or without addition of low molecular weight factor XIII inhibitors was analysed by means of TEG. The clotting reaction was started or accelerated by addition of a tissue factor reagent. The test batch contained: 200 μl of plasma, 30 μl of NaCl soln (control) or inhibitor solution in different dilutions, 50 μl of tissue factor reagent. (Thromborel S, Dade Behring) and 20 μl of calcium chloride solution (200 mmol/l). The reagents were pipetted into the cup at 37° C. and the TEG measurement was started with Haemoscope apparatuses. Alternatively, the calcium chloride can also be already added to the tissue factor reagent and the reaction thus started. The measurement parameters of reaction time (R), alpha angle, maximum amplitude (MA) and time to achieve the maximum amplitude (MA) were determined and evaluated. […] The investigations carried out here with plasma are in principle also applicable to whole blood.

[1] = concentration in the test 1.07 μg/ml, standard human plasma
[2] = concentration in the test 1.071 μg/ml (so in the source), standard human plasma
[3] = concentration in the test 3.21 μg/ml, standard human plasma
[4] = concentration in the test 3.214 μg/ml (so in the source), standard human plasma
[5] = concentration in the test 10.7 μg/ml, standard human plasma
[6] = concentration in the test 32.1 μg/ml, standard human plasma
[7] = concentration in the test 107 μg/ml, standard human plasma
[8] = concentration in the test 321 μg/ml, standard human plasma
[9] = concentration in the test 0.32 μg/ml, standard human plasma
[10] = concentration in the test 107 μg/ml, standard human plasma, 107 µg/ml in the test
[11] = concentration in the test 321 μg/ml, standard human plasma, 321 µg/ml in the test
[12] = concentration in the test 536 μg/ml, standard human plasma, 536 µg/ml in the test
[13] = concentration in the test 0.033 μg/ml, Table 3
[14] = concentration in the test 0.10 μg/ml, Table 3
[15] = concentration in the test 0.33 μg/ml, Table 3
[16] = concentration in the test 1.00 μg/ml, Table 3
[17] = concentration in the test 3.33 μg/ml, Table 3

`NCCc1c[nH]cn1` [Histamine] gave an Angle [1] of 73.4 °, an MA [1] of 17.8 mm and an R [1] of 20.0 s. It also gave a TMA [1] of 592.5 s, an Angle [2] of 70.3 ° and an MA [2] of 14.0 mm. The R [2] was 15.0 s, the TMA [2] was 492.5 s and the Angle [3] was 75.0 °. It also gave an MA [3] of 17.9 mm, an R [3] of 22.5 s and a TMA [3] of 527.5 s. The Angle [4] was 71.9 °, the MA [4] was 13.0 mm and the R [4] was 25.0 s. The TMA [4] was 182.5 s, the Angle [5] was 74.8 ° and the MA [5] was 19.2 mm. For the same compound, the R [5] was 20.0 s, the TMA [5] was 622.5 s and the Angle [6] was 73.9 °. It also gave an MA [6] of 17.2 mm, an R [6] of 22.0 s and a TMA [6] of 472.5 s. It also gave an Angle [7] of 73.5 °, an MA [7] of 16.9 mm and an R [7] of 17.5 s. The TMA [7] was 462.5 s, the Angle [8] was 72.7 ° and the MA [8] was 15.5 mm. For the same compound, the R [8] was 20.0 s and the TMA [8] was 430.0 s.

Work on `CN(C)c1cccc2c(S(=O)(=O)NCCCCCN)cccc12` [Monodansylcadaverine] yielded an Angle [9] of 74.0 °, an MA [9] of 18.1 mm and an R [9] of 20.0 s. The TMA [9] was 655.0 s, the Angle [1] was 74.9 ° and the MA [1] was 18.4 mm. The R [1] was 22.5 s, the TMA [1] was 610.0 s and the Angle [3] was 74.7 °. For the same compound, the MA [3] was 19.1 mm, the R [3] was 20.0 s and the TMA [3] was 657.5 s. It also gave an Angle [5] of 74.4 °, an MA [5] of 18.4 mm and an R [5] of 25.0 s. The TMA [5] was 560.0 s, the Angle [6] was 74.4 ° and the MA [6] was 17.3 mm. For the same compound, the R [6] was 17.5 s, the TMA [6] was 562.5 s and the Angle [10] was 76.9 °. For the same compound, the MA [10] was 18.7 mm, the R [10] was 32.5 s and the TMA [10] was 237.5 s. The Angle [11] was 71.0 °, the MA [11] was 15.1 mm and the R [11] was 20.0 s. For the same compound, the TMA [11] was 490.0 s, the Angle [12] was 70.3 ° and the MA [12] was 13.3 mm. For the same compound, the R [12] was 27.5 s and the TMA [12] was 370.0 s.

Work on `NCCCCN` [Putrescine] yielded an Angle [1] of 73.1 °, an MA [1] of 17.2 mm and an R [1] of 22.5 s. The TMA [1] was 452.5 s, the Angle [2] was 69.5 ° and the MA [2] was 13.6 mm. For the same compound, the R [2] was 25 s, the TMA [2] was 405.0 s and the Angle [3] was 73.7 °. The MA [3] was 15.9 mm, the R [3] was 17.5 s and the TMA [3] was 277.5 s. For the same compound, the Angle [4] was 72.6 °, the MA [4] was 13.9 mm and the R [4] was 32.5 s. It also gave a TMA [4] of 327.5 s, an Angle [5] of 73.4 ° and an MA [5] of 18.7 mm. The R [5] was 20.0 s, the TMA [5] was 672.5 s and the Angle [6] was 73.0 °. The MA [6] was 16.9 mm, the R [6] was 25 s and the TMA [6] was 585.0 s. The Angle [7] was 73.0 °, the MA [7] was 16.5 mm and the R [7] was 15 s. For the same compound, the TMA [7] was 505.0 s, the Angle [8] was 72.8 ° and the MA [8] was 15.8 mm. For the same compound, the R [8] was 20 s and the TMA [8] was 400.0 s.

With `CC(=O)CSc1n(C)c(C)c(C)[n+]1C.[Cl-]` [1,3,4,5-tetramethyl-2-[(2-oxopropyl)thio]imidazolium chloride] the MA (concentration in the test 0.033 μg/ml) was 21.5 mm, the Angle [13] was 79.6 ° and the R [13] was 22.5 s. The TMA [13] was 177.5 s, the MA (concentration in the test 0.10 μg/ml) was 18.5 mm and the Angle [14] was 79.0 °. The R [14] was 22.5 s, the TMA [14] was 140.0 s and the MA (concentration in the test 0.33 μg/ml) was 14.9 mm. It also gave an Angle [15] of 77.0 °, an R [15] of 22.5 s and a TMA [15] of 77.5 s. It also gave an MA (concentration in the test 1.00 μg/ml) of 13.1 mm, an Angle [16] of 75.4 ° and an R [16] of 22.5 s. The TMA [16] was 77.5 s, the MA (concentration in the test 3.33 μg/ml) was 12.4 mm and the Angle [17] was 74.0 °. It also gave an R [17] of 22.5 s and a TMA [17] of 77.5 s.
